Patent EP0354522A1, “Use of alpha-aminoboronic acid derivatives in prevention and treatement of viral diseases” (HOECHST AKTIENGESELLSCHAFT, priority 1988, dated 1990)

Biological target: T1, HIV-Protease (Human immunodeficiency virus type 1 group M subtype B, UniProt P04585)
T1 construct: Max-Planck-Institut für Molekulare Genetik, Berlin
Assay: HIV protease test (cleavage of heptapeptide Ser-Phe-Asn-Phe-Pro-Gln-Ile, HPLC quantification of Ser-Phe-Asn-Phe)
Format: biochemical
Details: 2 h, 37°C; for IC50: cloned HIV protease, pH ca. 6,0; for activity at 100 µM: residual enzyme activity at 10^-4 M inhibitor, 100 % = mean of runs without inhibitor, pH ca. 6,0, 1 % DMSO, read-out: Restakt. bei 10^-4 M
Source text: Als synthetisches Substrat ist ein Heptapeptid der Sequenz Ser-Phe-Asn-Phe-Pro-Gln-Ile geeignet. Diese Sequenz tritt im natürlichen Substrat der Protease auf und liefert bei der autokatalytischen Freisetzung nach einer Phe-Pro-Spaltung den N-terminalen Beginn der Proteasesequenz (Pro-Gln-Ile...).
Es wird eine klonierte HIV-Protease (Max-Planck-Institut für Molekulare Genetik, Berlin) benutzt. [drawing 5]
Von den Reaktionsprodukten wird Ser-Phe-Asn-Phe zur Abtrennung und quantitativen Bestimmung mittels HPLC herangezogen.
Nach 2 Stunden bei 37°C werden die Ansätze mit 225 µl HPLC-Elutionsmittel (s.u.) gestoppt. Etwa 150 µl des zentrifugierten Überstands (Eppendorf-Zentrifuge) werden in Mikrovials gefüllt. Das Injektionsvolumen für die HPLC-Trennung beträgt 20 µl. Ser-Phe-Asn-Phe wird durch Vergleich mit einem externen Standard bekannter Konzentration (0,5 µg/ 20 µl) quantitativ bestimmt und stellt die Meßgröße der Enzymaktivität (µg Tetrapeptid pro 20 µl Meßprobe) dar. Bezugswert (= 100 % Enzymaktivität) ist der Mittelwert aus 2 oder mehr Ansätzen ohne Inhibitor. Als Standard-Inhibitor wird Pepstatin A (10⁻⁴ oder 10⁻⁵ M) verwendet.
• a) Substratlösung: 2 mg Ser-Phe-Asn-Phe-Pro-Gln-Ile werden in 1 ml MGTE 15-Puffer gelöst. • b) Testsubstanzen: Diese werden 10⁻² oder 10⁻³ M in Dimethylsulfoxid (DMSO) gelöst und 1 : 40 mit MGTE 15-Puffer verdünnt; 10 µl dieser Lösung werden pro Ansatz verwendet; die Endkonzentration des Präparates beträgt 10⁻⁴ bzw. 10⁻⁵ M; die DMSO-Konzentration in allen Testansätzen ist 1 %. Für IC₅₀-Bestimmungen wird das Präparat, ausgehend von 10⁻² M, mit 100 % DMSO in der geeigneten Weise verdünnt. • c) Proteaselösung: Das Enzym wird mit MGTE 25-Puffer auf eine geeignete Konzentration verdünnt. • d) MGTE 15/25-Puffer 20 mM Morpholinoethansulfonsäure (MES) 15 (25) % (w/v) Glyzerin 0,1 % (v/v) Triton® X 100 (vgl. Merck Index 10, 6601) 5 mM EDTA 0,5 M NaCl 1 mM Dithiothreit (nur für MGTE 25) 1 mM Phenylmethylsulfonylfluorid (PMSF) Der pH-Wert soll ca. 6,0 betragen. • e) HPLC-Elutionsmittel: Eine 0,1 M Phosphorsäure-Lösung wird mit Triethylamin auf pH 2,5 eingestellt. Aus dieser Lösung wird ein Phosphorsäure-Acetonitril-Gemisch mit 22,6 Gewichts-Prozent Acetonitril hergestellt.
Säule: Radial Pak LC Cartridge, 8 mm/C18, 5 µ (der Fa. Waters, USA). Fluß: 1 ml/min Detektoreinstellung: 215 nm, 0,08 AU Zeit pro Analyse: 12 min; Retentionszeiten: Heptapeptid ca. 9,5 min, Tetrapeptid ca. 5,2 min Laufmittel: 77,4 Gew.-% 0,1 M H₃PO₄/pH 2,5 22,6 Gew.-% Acetonitril

With `CCC[C@H](NC(=O)[C@H](Cc1ccccc1)NC(=O)CC(C)C)C(=O)NC(CC1CCCCC1)B1OC(C)(C)C(C)(C)O1` (stereo partly drawn) [Beispiel 1, Iva-Phe-Nva-[Cyclohexylmethyl,(4,4,5,5-tetramethyl-1,3,2-dioxaborolan-2-yl)]methylamid] the IC50 was 40 µM and the activity at 100 µM was 28%.
`CCCC[C@H](NC(=O)[C@H](Cc1ccccc1)NC(=O)CC(C)C)C(=O)NC(CC1CCCCC1)B1OC(C)(C)C(C)(C)O1` (stereo partly drawn) [Beispiel 2, Iva-Phe-Nle-[Cyclohexylmethyl,(4,4,5,5-tetramethyl-1,3,2-dioxaborolan-2-yl)]methylamid] showed an activity at 100 µM of 74%.
Compound `CC(C)CC(=O)N[C@@H](Cc1ccccc1)C(=O)N[C@@H](Cc1c[nH]cn1)C(=O)NC(CC1CCCCC1)B1OC(C)(C)C(C)(C)O1` (stereo partly drawn) [Beispiel 3, Iva-Phe-His-[Cyclohexylmethyl,(4,4,5,5-tetramethyl-1,3,2-dioxaborolan-2-yl)]methylamid] has an activity at 100 µM of 61%.
Compound `CC(C)CC(=O)N[C@@H](Cc1cccs1)C(=O)N[C@@H](Cc1c[nH]cn1)C(=O)NC(CC1CCCCC1)B1OC(C)(C)C(C)(C)O1` (stereo partly shown) [Beispiel 4] has an activity at 100 µM of 96%.
`CCC[C@H](NC(=O)[C@H](Cc1ccccc1)NC(=O)CC(C)C)C(=O)NC(Cc1cccc2ccccc12)B1OC(C)(C)C(C)(C)O1` (stereo partly drawn) [Beispiel 10, Iva-Phe-Nva-[(1-Naphthylmethyl),(4,4,5,5-tetramethyl-1,3,2-dioxaborolan-2-yl)]methylamid] showed an activity at 100 µM of 77%.
Compound `CCC[C@H](NC(=O)[C@H](Cc1ccccc1)NC(=O)CC(C)C)C(=O)NC(CC1CCCCCCC1)B1OC(C)(C)C(C)(C)O1` (stereo partly shown) [Beispiel 11] has an activity at 100 µM of 96%.
`CCCC(NC(=O)C(Cc1ccccc1)NC(=O)CC(C)C)C(=O)NC(CC1CCCCC1)B1OC2CC3CC(C3(C)C)C2(C)O1` (stereo not drawn) [Beispiel 12, Iva-Phe-Nva-[Cyclohexylmethyl, (-)-Pinandioxyboryl]methylamid] was tested, and the activity at 100 µM was 64%.
Work on `CCC[C@H](NC(=O)[C@H](Cc1ccccc1)NC(=O)CC(C)C)C(=O)NC(CC1CCC(C)CC1)B1OC(C)(C)C(C)(C)O1` (stereo partly drawn) [Beispiel 14, Iva-Phe-Nva-[(4-Methylcyclohexyl)methyl,(4,4,5,5-tetramethyl-1,3,2-dioxaborolan-2-yl)]methylamid] yielded an activity at 100 µM of 75%.
`CCC[C@H](NC(=O)[C@H](Cc1ccccc1)NC(=O)CC(C)C)C(=O)NC(CC1CCCCCC1)B1OC(C)(C)C(C)(C)O1` (stereo partly drawn) [Beispiel 15, Iva-Phe-Nva- (Cycloheptylmethyl,(4,4,5,5-tetramethyl-1,3 2-dioxaborolan-2-yl)]methylamid] gave an activity at 100 µM of 86%.
For `CC(C)CC(=O)N[C@@H](Cc1ccccc1)C(=O)N(C)[C@@H](Cc1ccccc1)C(=O)NC(CC1CCCCC1)B1OC(C)(C)C(C)(C)O1` (stereo partly shown) [Beispiel 16], the activity at 100 µM was 70%.
`CC(C)CC(=O)N[C@@H](Cc1ccccc1)C(=O)N[C@@H](Cc1c[nH]cn1)C(=O)NC(CC1CCCCCCC1)B1OC(C)(C)C(C)(C)O1` (stereo partly drawn) [Beispiel 17, Iva-Phe-His-[Cyclooctylmethyl,(4,4,5,5-tetramethyl-1,3,2-dioxaborolan-2-yl)]methylamid] gave an IC50 of 200 µM and an activity at 100 µM of 52%.
For `CC(C)CC(=O)N[C@@H](Cc1ccccc1)C(=O)N[C@@H](Cc1c[nH]cn1)C(=O)NC(CC1CCCCCC1)B1OC(C)(C)C(C)(C)O1` (stereo partly drawn) [Beispiel 18, Iva-Phe-His-[Cycloheptylmethyl,(4,4,5,5-tetramethyl-1,3,2-dioxaborolan-2-yl)]methylamid], the activity at 100 µM was 36%.
Compound `CC(C)CC(NC(=O)[C@H](Cc1c[nH]cn1)NC(=O)C(Cc1cccc2ccccc12)Cc1cccc2ccccc12)B1OC(C)(C)C(C)(C)O1` (stereo partly drawn) [Beispiel 19, Bis-(1-Naphthylmethyl)acetyl-His-[3-methyl,l-(4,4,5,5-tetramethyl-1,3,2-dioxaborolan-2-yl)]butylamid] has an activity at 100 µM of 37%.
`CCC[C@H](NC(=O)C(Cc1ccccc1)CS(=O)(=O)C(C)(C)C)C(=O)NC(CC1CCCCC1)B1OC(C)(C)C(C)(C)O1` (stereo partly shown) [Beispiel 35, (2-Benzyl,3-t-butylsulfonyl)propionyl-Nva-[Cyclohexylmethyl,(4,4,5,5-tetramethyl-1,3,2-dioxaborolan-2-yl)]methylamid] showed an IC50 of 40 µM and an activity at 100 µM of 22%.
`CC(C)[C@H](NC(=O)C(Cc1ccccc1)CS(=O)(=O)C(C)(C)C)C(=O)NC(CC1CCCCC1)B1OC(C)(C)C(C)(C)O1` (stereo partly shown) [Beispiel 38, (2-Benzyl,3-t-butylsulfonyl)propionyl-Val-[Cyclohexylmethyl,(4,4,5,5-tetramethyl-1,3,2-dioxaborolan-2-yl)]methylamid] gave an IC50 of 9 µM and an activity at 100 µM of 11%.
In the case of `CCC[C@H](NC(=O)C(Cc1cccs1)CS(=O)(=O)C(C)(C)C)C(=O)NC(CC1CCCCCC1)B1OC(C)(C)C(C)(C)O1` (stereo partly shown) [Beispiel 40, [3-t-Butylsulfonyl,2-(2-thienylmethyl)]propionyl-Nva-[Cycloheptylmethyl,(4,4,5,5-tetramethyl-1,3,2-dioxaborolan-2-yl)]methylamid], the activity at 100 µM is reported as 46%.
`CCC[C@H](NC(=O)C(Cc1cccc2ccccc12)CS(=O)(=O)C(C)(C)C)C(=O)NC(CC(C)C)B1OC(C)(C)C(C)(C)O1` (stereo partly shown) [Beispiel 41, [3-t-Butylsulfonyl,2-(1-naphthylmethyl)]propionyl-Nva-[3-methyl,1-(4,4,5,5-tetramethyl-1,3,2-dioxaborolan-2-yl)]butylamid] gave an activity at 100 µM of 35%.
Work on `CCC[C@H](NC(=O)C(Cc1ccccc1)CS(=O)(=O)C(C)(C)C)C(=O)NC(Cc1ccccc1)B1OC(C)(C)C(C)(C)O1` (stereo partly shown) [Beispiel 44] yielded an activity at 100 µM of 72%.
`CC1(C)OB(C(Cc2ccccc2)NC(=O)[C@H](CC(N)=O)NC(=O)C(Cc2ccccc2)CS(=O)(=O)C(C)(C)C)OC1(C)C` (stereo partly shown) [Beispiel 45, (2-Benzyl,3-t-butylsulfonyl)propionyl-Asn-[Benzyl,(4,4,5,5-tetramethyl-1,3,2-dioxaborolan-2-yl)]methylamid] was tested, and the IC50 was 100 µM and the activity at 100 µM was 49%.
In the case of `CCC[C@H](NC(=O)C(Cc1ccccc1)CS(=O)(=O)C(C)(C)C)C(=O)NC(B1OC(C)(C)C(C)(C)O1)C1CCCCCC1` (stereo partly shown) [Beispiel 46], the IC50 is reported as 40 µM and the activity at 100 µM is reported as 45%.
With `CCC[C@H](NC(=O)C(Cc1cccc2ccccc12)CS(=O)(=O)C(C)(C)C)C(=O)NC(CC1CCCC1)B1OC(C)(C)C(C)(C)O1` (stereo partly shown) [Beispiel 47, [3-t-Butylsulfonyl,2-(1-naphthylmethyl)]propionyl-Nva-[Cyclopentylmethyl,(4,4,5,5-tetramethyl-1,3,2-dioxaborolan-2-yl)]methylamid] the IC50 was 10 µM and the activity at 100 µM was 16%.
For `CCC[C@H](NC(=O)C(Cc1cccc2ccccc12)CS(=O)(=O)C(C)(C)C)C(=O)NC(CC(CC)CC)B1OC(C)(C)C(C)(C)O1` (stereo partly shown) [Beispiel 48, [3-t-Butylsulfonyl,2-(1-naphthylmethyl)]propionyl-Nva-[3-Ethyl,1-(4,4,5,5-tetramethyl-1,3,2-dioxaborolan-2-yl)]pentylamid], the IC50 was 60 µM and the activity at 100 µM was 32%.
For `CCC[C@H](NC(=O)C(Cc1ccccc1)CS(=O)(=O)C(C)(C)C)C(=O)NC(CC(CC)CC)B1OC(C)(C)C(C)(C)O1` (stereo partly shown) [Beispiel 49, (2-Benzyl,3-t-butylsulfonyl)propionyl-Nva-[3-Ethyl,1-(4,4,5,5-tetramethyl-1,3,2-dioxaborolan-2-yl)]pentylamid], the activity at 100 µM was 46%.
